CN1CC(=O)N2[C@H](c3ccc4c(c3)CCN4)c3[nH]c4ccccc4c3C[C@@H]2C1=O [Example 111, (6R,12aR)-2,3,6,7,12,12a-Hexahydro-6-(5-Indolinyl)-2-Methyl-Pyrazino(2′,1′:6,1)Pyrido(3,4-b)Indole-1,4-Dione]
melting point: 240 °C

Reference: patent publication US20020035111A1, “Method of inhibiting neoplastic cells with tetracyclic pyrido[3,4-B] indole derivatives” (priority 1998, published 2002)
